Experimental data from the NIST ThermoML archive (doi:10.1016/j.fluid.2016.01.043).
Numbers after ± are expanded uncertainties.

What was measured:
[1] = mn = molality of the nth substance listed, in mol/kg; conditions: 101 kPa, Liquid; for viscosity: Cone and plate viscometry; for electrical conductivity: Frequency=0 MHz, Direct current cell with electrodes
[2] = for viscosity / electrical conductivity: 101 kPa, Liquid; for viscosity: Cone and plate viscometry; for electrical conductivity: Frequency=0 MHz, Direct current cell with electrodes

CCCC[N+]1(C)CCCC1.O=S(=O)([N-]S(=O)(=O)C(F)(F)F)C(F)(F)F + [F][Ta]([F])([F])([F])[F]
[1], m2 = 0
Conditions | electrical conductivity [S/m] | viscosity [mPa·s]
293.15 K | 0.25 ± 0.01 | 102
303.15 K | – | 67 ± 33
312.15 K | – | 47 ± 23
312.17 K | – | 47 ± 23
313.15 K | 0.47 ± 0.02 | –
321.22 K | – | 36
323.15 K | 0.63 ± 0.03 | –
330.29 K | – | 28
333.15 K | 0.8 ± 0.03 | –
339.37 K | – | 22
343.15 K | 1.01 ± 0.04 | –
348.44 K | – | 17 ± 8
353.15 K | 1.21 ± 0.05 | –
357.52 K | – | 14
367.49 K | – | 11 ± 5
373.15 K | 1.74 ± 0.07 | –
377.46 K | – | 10
386.53 K | – | 8
393.15 K | 2.3 ± 0.09 | –
394.73 K | – | 7
403.15 K | – | 6
413.15 K | 2.92 ± 0.12 | –
433.15 K | 3.61 ± 0.14 | –
453.15 K | 4.33 ± 0.18 | –

CCCC[N+]1(C)CCCC1.O=S(=O)([N-]S(=O)(=O)C(F)(F)F)C(F)(F)F
[2]
Conditions | electrical conductivity [S/m] | viscosity [mPa·s]
293.15 K | 0.25 ± 0.01 | 102 ± 4
303.15 K | – | 67 ± 3
312.15 K | – | 47 ± 2
312.17 K | – | 47 ± 2
313.15 K | 0.47 ± 0.02 | –
321.22 K | – | 36 ± 2
323.15 K | 0.63 ± 0.03 | –
330.29 K | – | 28 ± 1
333.15 K | 0.8 ± 0.03 | –
339.37 K | – | 22 ± 1
343.15 K | 1.01 ± 0.04 | –
348.44 K | – | 17 ± 1
353.15 K | 1.21 ± 0.05 | –
357.52 K | – | 14 ± 1
367.49 K | – | 11 ± 1
373.15 K | 1.74 ± 0.07 | –
377.46 K | – | 10 ± 1
386.53 K | – | 8 ± 1
393.15 K | 2.3 ± 0.09 | –
394.73 K | – | 7 ± 1
403.15 K | – | 6 ± 1
413.15 K | 2.92 ± 0.12 | –
433.15 K | 3.61 ± 0.14 | –
453.15 K | 4.33 ± 0.17 | –

Conditions | Normal melting temperature [°C]
[2], Crystal, DTA | -22 ± 1

[F][Ta]([F])([F])([F])[F] [Tantalum fluoride] + CCCC[N+]1(C)CCCC1.O=S(=O)([N-]S(=O)(=O)C(F)(F)F)C(F)(F)F
[1]
Conditions | electrical conductivity, 293.15 K [S/m] | electrical conductivity, 373.15 K [S/m] | electrical conductivity, 413.15 K [S/m] | electrical conductivity, 453.15 K [S/m] | viscosity, 303.15 K [mPa·s] | viscosity, 312.17 K [mPa·s] | viscosity, 321.22 K [mPa·s] | viscosity, 339.37 K [mPa·s] | viscosity, 367.49 K [mPa·s] | viscosity, 403.15 K [mPa·s]
m1 = 0.08 | 0.24 ± 0.01 | 1.73 ± 0.07 | 2.94 ± 0.12 | 4.23 ± 0.17 | 71 ± 35 | 51 ± 25 | 38 | 23 ± 11 | 12 | 7
m1 = 0.17 | 0.23 ± 0.01 | 1.66 ± 0.07 | 2.81 ± 0.11 | 4.16 ± 0.17 | 73 ± 36 | 52 | 40 | 24 | 12 | 7
m1 = 0.35 | 0.23 ± 0.01 | 1.65 ± 0.07 | 2.78 ± 0.11 | 4.13 ± 0.17 | 77 ± 38 | 56 | 41 ± 20 | 25 ± 12 | 13 ± 6 | 7
m1 = 0.7 | 0.22 ± 0.01 | 1.56 ± 0.06 | 2.66 ± 0.11 | 3.84 ± 0.15 | 81 ± 40 | 59 ± 29 | 44 | 26 | 14 | 8
m1 = 1.41 | 0.22 ± 0.01 | 1.37 ± 0.06 | 2.27 ± 0.09 | 3.44 ± 0.14 | 87 ± 43 | 62 | 47 ± 23 | 28 | 15 ± 7 | 8
